From patent US5879902A, “Diagnostic methods and kits for the evaluation of the sympathetic nervous system function” (Neuro-Biotech Inc., priority 1997, dated 1999)
Where “and” joins values, the source holds several entries; their conditions need not be identical. Identical values can stand only once. Counter-ions that a name gives are not always drawn. Blank lines part the entries; values can stand above or below the molecule they belong to.

How the values were obtained:
Format in all cases: biochemical
dopamine-β-hydroxylase [1] = target: T1, dopamine-β-hydroxylase (Homo sapiens, UniProt P09172); experiment: Specific DBH activity in unpurified human serum (octopamine formed from tyramine, spectrophotometric); details: for % Control (DBH activity with the named component omitted) / Activity (DBH enzyme activity with the named component omitted): named ingredient omitted from reaction mixture, pool of 25 normal human serum; for Activity (DBH enzyme activity with the named component omitted): 37° C., mean ± SEM of at least 10 determinations; for decrease in enzyme activity on omission of the component from the incubation medium: component omitted; for saturation point (concentration saturating the enzyme activity): 20 μL human serum, tyramine varied at 10 mM ascorbate, ascorbate varied at 20 mM tyramine; for apparent Vmax: pH 5.0, Woolf's graphical method
T1 sequence (P09172 40-617 limits assumed): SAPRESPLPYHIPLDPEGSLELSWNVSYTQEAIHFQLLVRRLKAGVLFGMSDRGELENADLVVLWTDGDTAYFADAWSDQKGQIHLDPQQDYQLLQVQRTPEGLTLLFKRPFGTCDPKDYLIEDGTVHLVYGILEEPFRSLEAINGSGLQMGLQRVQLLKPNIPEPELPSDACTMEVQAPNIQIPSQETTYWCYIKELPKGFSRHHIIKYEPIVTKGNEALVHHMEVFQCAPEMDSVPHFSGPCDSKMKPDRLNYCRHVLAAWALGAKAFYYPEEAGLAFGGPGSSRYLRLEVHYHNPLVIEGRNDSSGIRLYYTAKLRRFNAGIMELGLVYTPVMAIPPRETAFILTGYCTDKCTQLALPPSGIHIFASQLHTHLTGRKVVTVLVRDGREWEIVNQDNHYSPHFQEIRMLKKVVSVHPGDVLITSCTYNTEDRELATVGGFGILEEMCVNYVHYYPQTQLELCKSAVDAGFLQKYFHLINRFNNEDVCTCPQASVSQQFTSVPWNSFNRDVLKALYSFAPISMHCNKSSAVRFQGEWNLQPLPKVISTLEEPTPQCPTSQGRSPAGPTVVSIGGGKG
Experimental: (§1) The kinetic parameters and biochemical properties were done on a pool of 25 subjects randomly distributed between males and females. An appropriate aliquot of serum was taken as enzyme source and diluted in ice-cold deionized water to a final volume of 400 μL, prior the preincubation period. For individual measurements of DBH enzyme activity, 20 μL of human serum was routinely used. For the ultrafiltration method, an aliquot of a pool of serum was passed through a DIAFLO™ Ultrafilter membrane, type YM100, and 40 μL of the ultrafiltrate was used to measure the enzyme activity (FIG. 9).
The specific DBH activity was determined by the method described by Roberge and Charbonneau (Roberge AG et al., Nutr Res, 1985, 5:57-63). The preincubation mixture contained 0.2M sodium acetate buffer (pH 5), 15 mM N-ethylmaleimide (NEM) and the enzyme source (from the serum sample) and was carried out at 25° C. for 10 min in an atmosphere of air using a metabolic shaker (Dubnoff). To the preincubated enzymatic source were added to a final volume of 1 mL: 10 mM fumarate, […], 2500 units catalase and 1 mM pargyline, as monoamide oxidasae inhibitor. Blanks and internal standards were set up in the same manner and contained 20 mM octopamine instead of the enzyme source. The incubation was started with 20 mM tyramine and conducted at 37° C. for 30 min in an atmosphere of air using a metabolic shaker (Dubnoff). The reaction was stopped on ice by adding 300 μL of 3M trichloroacetic acid to each tube and immediately centrifuged at 2500 g of at 4° C. for 10 min. The supernatant was decanted on a DOWEX™ 50×4-400 resin column and the acid eluted with 3M NH4 OH. The octopamine formed was derived to p-hydroxybenzaldehyde by periodate cleavage which was isolated by successive solvent extractions with ether and ammonia. The last aqueous phase was assayed by a dual-wavelenght spectrophotometer (333-360 nm). Specific activity was expressed […] of octopamine formed per mL per min. Recovery of octopamine added to the blank incubation mixture was 90±2%. L-tyramine was used as substrate and an aliquot of unpurified serum was taken as the enzyme source, usually 20 μL.
Apparent Michaelis constant (Km) and apparent maximum velocity (Vmax) were determined following the Woolf's graphical procedure and the usual method of Lineweaver and Burk. Statistical estimation related to enzyme kinetics was done according to Wilkinson.

dopamine-β-hydroxylase [2] = target: T1, dopamine-β-hydroxylase; experiment: DBH activity in ultrafiltrate of human serum (DIAFLO YM100 membrane); set-up: an aliquot of a pool of serum was passed through a DIAFLO™ Ultrafilter membrane, type YM100; from tissue; host or cells: ultrafiltrate of pooled human serum; details: with the named substance in the medium (15 mM NEM; copper up to 4 μM)
Experimental: as §1
(§2) The specific DBH activity was determined by the method described by Roberge and Charbonneau (Roberge AG et al., Nutr Res, 1985, 5:57-63). The preincubation mixture contained 0.2M sodium acetate buffer (pH 5), 15 mM N-ethylmaleimide (NEM) and the enzyme source (from the serum sample) and was carried out at 25° C. for 10 min in an atmosphere of air using a metabolic shaker (Dubnoff). To the preincubated enzymatic source were added to a final volume of 1 mL: 10 mM fumarate, […], 2500 units catalase and 1 mM pargyline, as monoamide oxidasae inhibitor. […]
The relationship between copper and NEM in the medium was studied in an aliquot of serum passed through a DIAFLO™ Ultrafilter membrane, type YM100, and the enzyme activity was measured in the ultrafiltrate. […]

dopamine-β-hydroxylase [3] = target: T1, dopamine-β-hydroxylase; experiment: DBH activity in human EDTA-treated blood
Experimental: (§3) The specific DBH activity was determined by the method described by Roberge and Charbonneau (Roberge AG et al., Nutr Res, 1985, 5:57-63). The preincubation mixture contained 0.2M sodium acetate buffer (pH 5), 15 mM N-ethylmaleimide (NEM) and the enzyme source (from the serum sample) and was carried out at 25° C. for 10 min in an atmosphere of air using a metabolic shaker (Dubnoff). To the preincubated enzymatic source were added to a final volume of 1 mL: 10 mM fumarate, […], 2500 units catalase and 1 mM pargyline, as monoamide oxidasae inhibitor. Blanks and internal standards were set up in the same manner and contained 20 mM octopamine instead of the enzyme source. The incubation was started with 20 mM tyramine and conducted at 37° C. for 30 min in an atmosphere of air using a metabolic shaker (Dubnoff). The reaction was stopped on ice by adding 300 μL of 3M trichloroacetic acid to each tube and immediately centrifuged at 2500 g of at 4° C. for 10 min. […]
(§4) Apparent Michaelis constant (Km) and apparent maximum velocity (Vmax) were determined following the Woolf's graphical procedure and the usual method of Lineweaver and Burk. […]
(§5) In FIG. 7A, the specific DBH enzyme activity was measured in human blood treated with EDTA, a copper chelator, in respect to pH dependence, to copper content added in the incubation medium and to kinetic parameters. […]

[4] = substrate: NCCc1ccc(O)cc1; experiment: Specific DBH activity in unpurified human serum (octopamine formed from tyramine, spectrophotometric); details: other: human serum, pH 5.0, Woolf's graphical method
Experimental: as §1, §2, §4

[5] = substrate: NCCc1ccc(O)cc1; experiment: DBH activity in human EDTA-treated blood; details: other: EDTA-treated blood, pH 5.8, Lineweaver and Burk
Experimental: as §3, §4, §5

Molecule: O=C(O)/C=C/C(=O)O [Furnarate, disodium fumarate]
% Control (DBH activity with the named component omitted) (dopamine-β-hydroxylase [1]): 88% | Activity (DBH enzyme activity with the named component omitted) (dopamine-β-hydroxylase [1]): 47.5 ± 1.00 nmol of octopamine formed per mL per min | increase in enzyme activity by addition of fumarate (dopamine-β-hydroxylase [1]; whatever the concentrations used, up to 40 mM): 12%

Molecule: CCN1C(=O)C=CC1=O [N-ethylmaleimide (NEM), N-ethylmaleimide]
decrease in enzyme activity on omission of the component from the incubation medium (dopamine-β-hydroxylase [1]; human serum): 36% and 66% | % Control (DBH activity with the named component omitted) (dopamine-β-hydroxylase [1]): 66% | Activity (DBH enzyme activity with the named component omitted) (dopamine-β-hydroxylase [1]): 35.6 ± 0.39 nmol of octopamine formed per mL per min | enzyme activity in ultrafiltrate (dopamine-β-hydroxylase [2]): 52±0.7 nmol of octopamine formed per mg of protein per hour

Molecule: O=C1O[C@H]([C@@H](O)CO)C(O)=C1O [ascorbate, ascorbic acid]
saturation point (concentration saturating the enzyme activity) (dopamine-β-hydroxylase [1]): 10 mM | decrease in enzyme activity on omission of the component from the incubation medium (dopamine-β-hydroxylase [1]; human serum): 96% | Km value lower than for tyramine (fold) (dopamine-β-hydroxylase [1]; human serum): 10 times | apparent Vmax (dopamine-β-hydroxylase [1]; human serum): 56 nmol of octopamine formed per mL per min | % Control (DBH activity with the named component omitted) (dopamine-β-hydroxylase [1]): 4% | Activity (DBH enzyme activity with the named component omitted) (dopamine-β-hydroxylase [1]): 2.2 ± 0.19 nmol of octopamine formed per mL per min

maximum decrease in enzyme activity (dopamine-β-hydroxylase [1]; 20 μM exogenous copper, with 15 mM NEM in the medium): 90% | exogenous copper content above which enzyme activity decreases significantly (dopamine-β-hydroxylase [1]; with 15 mM NEM in the medium): higher than 2 μM | exogenous copper concentration above which enzyme activity decreases significantly (dopamine-β-hydroxylase [1]; without NEM in the medium): higher than 4 μM | effect of exogenous copper on EDTA inhibition (dopamine-β-hydroxylase [3]; copper from 0 to 100 μM in the medium): progressively reversed
Molecule: [Cu] [copper]
enzyme activity in ultrafiltrate (dopamine-β-hydroxylase [2]): 51±0.56 nmol of octopamine formed per mg of protein per hour

saturation point (concentration saturating the enzyme activity) (dopamine-β-hydroxylase [1]): 20 mM
Molecule: NCCc1ccc(O)cc1 [tyramine, L-tyramine]
apparent Vmax (dopamine-β-hydroxylase [1]; human serum): 72 nmol of octopamine formed per mL per min | Vmax (dopamine-β-hydroxylase [3]; EDTA-treated blood, pH 5.8, Lineweaver and Burk): 38.5 nmol of octopamine formed per mL per min

% Control (DBH activity with the named component omitted) (dopamine-β-hydroxylase [1]): 10%
B1: Catalase: beef liver catalase, added for peroxide degradation (protein, UniProt P00432 2-527, looked up)
Catalase: ADNRDPASDQMKHWKEQRAAQKPDVLTTGGGNPVGDKLNSLTVGPRGPLLVQDVVFTDEMAHFDRERIPERVVHAKGAGAFGYFEVTHDITRYSKAKVFEHIGKRTPIAVRFSTVAGESGSADTVRDPRGFAVKFYTEDGNWDLVGNNTPIFFIRDALLFPSFIHSQKRNPQTHLKDPDMVWDFWSLRPESLHQVSFLFSDRGIPDGHRHMNGYGSHTFKLVNANGEAVYCKFHYKTDQGIKNLSVEDAARLAHEDPDYGLRDLFNAIATGNYPSWTLYIQVMTFSEAEIFPFNPFDLTKVWPHGDYPLIPVGKLVLNRNPVNYFAEVEQLAFDPSNMPPGIEPSPDKMLQGRLFAYPDTHRHRLGPNYLQIPVNCPYRARVANYQRDGPMCMMDNQGGAPNYYPNSFSAPEHQPSALEHRTHFSGDVQRFNSANDDNVTQVRTFYLKVLNEEQRKRLCENIAGHLKDAQLFIQKKAVKNFSDVHPEYGSRIQALLDKYNEEKPKNAVHTYVQHGSHLSAREKANL
catalase amount up to which enzyme activity increases (then plateau till 4000 units) (dopamine-β-hydroxylase [1]; human serum): 2000 units | Activity (DBH enzyme activity with the named component omitted) (dopamine-β-hydroxylase [1]): 5.6 ± 0.45 nmol of octopamine formed per mL per min

B2: dopamine-β-hydroxylase (Homo sapiens) (protein)
chain: SAPRESPLPYHIPLDPEGSLELSWNVSYTQEAIHFQLLVRRLKAGVLFGMSDRGELENADLVVLWTDGDTAYFADAWSDQKGQIHLDPQQDYQLLQVQRTPEGLTLLFKRPFGTCDPKDYLIEDGTVHLVYGILEEPFRSLEAINGSGLQMGLQRVQLLKPNIPEPELPSDACTMEVQAPNIQIPSQETTYWCYIKELPKGFSRHHIIKYEPIVTKGNEALVHHMEVFQCAPEMDSVPHFSGPCDSKMKPDRLNYCRHVLAAWALGAKAFYYPEEAGLAFGGPGSSRYLRLEVHYHNPLVIEGRNDSSGIRLYYTAKLRRFNAGIMELGLVYTPVMAIPPRETAFILTGYCTDKCTQLALPPSGIHIFASQLHTHLTGRKVVTVLVRDGREWEIVNQDNHYSPHFQEIRMLKKVVSVHPGDVLITSCTYNTEDRELATVGGFGILEEMCVNYVHYYPQTQLELCKSAVDAGFLQKYFHLINRFNNEDVCTCPQASVSQQFTSVPWNSFNRDVLKALYSFAPISMHCNKSSAVRFQGEWNLQPLPKVISTLEEPTPQCPTSQGRSPAGPTVVSIGGGKG
notes: from tissue; host or cells: human serum, unpurified (pool of 25 subjects; also individual subjects)
Km [4]: 8 mM | Km [5]: 2.4 mM
